Assays:
[1] = system: Mino, Jekol and JVM-1 cells; assay: migration assay, CXCL12-induced; conditions: Mino and Jekol more sensitive than JVM-1
DHL-4 = assay: growth inhibition by PCI-32765, DHL-4; type: cell-based; conditions: Homo sapiens; DHL-4, DLBCL, GCB
Mino cells [2] = assay: co-culture assay: migration of Mino cells beneath M2-10B4 stromal cells (pseudoemperipoliesis); type: cell-based, human; conditions: significant at 100 nM (p<0.01) and 1000 nM (p<0.001)
DoHH2 cells = assay: Alamar blue assay in DoHH2 cells; type: cell-based
[3] = system: CD19+CD5+ cells of MCL patients; assay: flow cytometry phenotyping of PBMCs of MCL patients before (D1) and after one week (D8) of ibrutinib; type: in vivo, human
Method: Blood was drawn from MCL patients enrolled in PCYC-04753 or PCYC-1104 studies in the US in accordance with GCP guidelines provided by ICH and principles of the Declaration of Helsinki with informed consent and in compliance with the protocols approved by the relevant Institutional Review Board(s). The whole blood samples were drawn into sodium heparin CPT tubes (BD), mixed for 5 min then spun at 1500 rcf for 20 min at the collection sites. The samples were shipped overnight to Pharmacyclics with 36 hrs. In a laminar flow hood, the PBMCs were removed from the top layer of the tubes, washed with PBS, and frozen in 90% FBS+10% DMSO (Sigma, St Louis, Mo.) in liquid nitrogen until use.
Frozen PBMCs were thawed in a 37° C. water bath, resuspended in RPMI+10% FBS, and recovered in a 37° C., 5% CO2 incubator in 5 ml polypropylene tubes (BD-Falcon) for 2 hours before phenotyping analysis. The PBMCs were washed with PBS+2% FBS, pelleted and resuspended in PBS+2% FBS containing phenotyping surface antibodies. All staining cocktails were run in duplicate tubes. The cells were stained for 30 minutes, washed with PBS, pelleted at 1300 rpm for 5 min, then fixed in PBS+1.6% paraformaldehyde (Electron Microscopy Services, Hatfield, Pa.).
BD FACS Canto II (BD, San Jose, Calif.) was used for all flow cytometry collection. The instrument was maintained according to manufacturer's recommendations. CS&T beads (BD) are used daily for baseline and reproducibility measurements according to manufacturer's instructions. Phosphoflow assays were stained and performed as described. The above antibodies were used with BD CompBead Plus to establish compensation settings and antibody staining consistency. 10,000 CD19^+ cells were collected from each staining sample. The data was analyzed and quantified using FlowJo7.6 (Tree Star, Ashland, Oreg.).

clinical = conditions: human, plasma; for AUC(0-inf): Mean (CV) AUC0-∞; for AUC(0-t): Mean AUC0-24h, steady state (Day 8)
MCL patients = assay: ALC and tumor volume (SPD) in MCL patients treated with ibrutinib
Mino cells [4] = assay: actin polymerization in Mino cells (phalloidin); type: cell-based, human; conditions: 10 and 100 nM (p<0.001)
DB = assay: growth inhibition by PCI-32765, DB; type: cell-based; conditions: Homo sapiens, DLBCL

C=CC(=O)N1CCC[C@@H](n2nc(-c3ccc(Oc4ccccc4)cc3)c3c(N)ncnc32)C1 [PCI-32765, (R)-1-(3-(4-amino-3-(4-phenoxyphenyl)-1H-pyrazolo[3,4-d]pyrimidin-1-yl)piperidin-1-yl)prop-2-en-1-one]
CXCL12-induced migration [1]: dose-dependently inhibited
GI50 (DHL-4): 530 nM
migration of Mino cells beneath the stromal cells (Mino cells [2]): dose-dependently inhibited
sensitivity of DOHH2 cell line (DoHH2 cells): moderately sensitive
absolute count and percentage of CD19+CD5+ cells in the lymphocyte population ([3]; after one week of ibrutinib treatment, p<0.05): significantly increased
intracellular Ki67 expression ([3]; after treatment, p<0.05): significantly reduced
pErk expression in CD20+CD5+ cells ([3]; differences not statistically significant): reduced
surface expression of CXCR4 in the CD19+CD5+ population ([3]; following one week of drug treatment, p<0.05): significantly reduced
CD38+ cells among CD19+CD5+ cells ([3]; following treatment, p<0.01): significantly decreased
CD19+CD3− population of gated lymphocytes ([3]; illustrative patient, after one week of treatment, before 9.29%): 63%
CD19+CD5+ population ([3]; illustrative patient, after one week of treatment, before 84.4%): 98.8%
AUC(0-inf) (clinical; 1.25 mg/kg, Day 1, cohort 1, 1.25 mg/kg): 181 ng·h/mL
Tmax (clinical; 1.25 mg/kg, Mean (CV) Tmax, Day 1, cohort 1, 1.25 mg/kg): 1 h
AUC(0-t) (clinical; 1.25 mg/kg, cohort 1, 1.25 mg/kg): 301 ng·h/mL
AUC(0-inf) (clinical; 5 mg/kg, Day 1, cohort 3, 5 mg/kg): 419 ng·h/mL
Tmax (clinical; 5 mg/kg, Mean (CV) Tmax, Day 1, cohort 3, 5 mg/kg): 2.3 h
AUC(0-t) (clinical; 5 mg/kg, cohort 3, 5 mg/kg): 1580 ng·h/mL
AUC(0-inf) (clinical; 8.3 mg/kg, Day 1, cohort 4, 8.3 mg/kg): 923 ng·h/mL
AUC(0-inf) (clinical; 8.3 mg/kg, Day 1, cohort CD (continuous dosing), 8.3 mg/kg): 1030 ng·h/mL
Tmax (clinical; 8.3 mg/kg, Mean (CV) Tmax, Day 1, cohort 4, 8.3 mg/kg): 1.8 h
Tmax (clinical; 8.3 mg/kg, Mean (CV) Tmax, Day 1, cohort CD (continuous dosing), 8.3 mg/kg): 2.2 h
AUC(0-t) (clinical; 8.3 mg/kg, cohort 4, 8.3 mg/kg): 2330 ng·h/mL
AUC(0-t) (clinical; 8.3 mg/kg, cohort CD (continuous dosing), 8.3 mg/kg): 1540 ng·h/mL
AUC(0-inf) (clinical; 12.5 mg/kg, Day 1, cohort 5, 12.5 mg/kg): 1550 ng·h/mL
Tmax (clinical; 12.5 mg/kg, Mean (CV) Tmax, Day 1, cohort 5, 12.5 mg/kg): 1.7 h
AUC(0-t) (clinical; 12.5 mg/kg, cohort 5, 12.5 mg/kg): 2940 ng·h/mL
AUC(0-inf) (clinical; 560 mg, Day 1, Fixed cohort, 560 mg fixed dose): 749 ng·h/mL
Tmax (clinical; 560 mg, Mean (CV) Tmax, Day 1, Fixed cohort, 560 mg fixed dose): 1.8 h
AUC(0-t) (clinical; 560 mg, Fixed cohort, 560 mg fixed dose): 1550 ng·h/mL
Tmax (clinical; […], Mean (CV) Tmax, Day 1, cohort 2, […]): 2.1 h
Tmax (clinical; time to maximum plasma concentration (Tmax), range over dose levels): 1 to 2.3 h
increase in ALC (MCL patients; Phase 2, 560 mg per day, following 2-4 weeks of drug treatment): 100-150%
reduction of tumor volumes (Sum of Perpendicular Diameters, SPD), on average (MCL patients; Phase I, MCL patients (n=9), evaluations following 2, 4 and 6 cycles): 80%
CXCL12-increased cortical actin of Mino cells (Mino cells [4]): dose-dependently and significantly inhibited
GI50 (DB): > 10000 nM

— patent publication US20170266186A1, “USE OF INHIBITORS OF BRUTON'S TYROSINE KINASE (BTK)” (Pharmacyclics LLC, priority 2011, published 2017)
